This note sets out measurements from ChEMBL document CHEMBL4152386, “Discovery of a Novel Inhaled PI3Kδ Inhibitor for the Treatment of Respiratory Diseases” (J Med Chem, 2018).

Structures are written as SMILES. Values after ≈ are worked out from the molar mass of the structure shown.

Series [1] in a line: Cmax in Wistar rat at 1 mg/kg, iv. Format: ADME, organism-based. Also on record: dose 1 mg/kg, route intravenous. To be noted: in vivo.
A short description of series [2]: Half life in Wistar rat plasma at 0.3 mg/kg, it administered as suspension. Format: ADME, organism-based. To be noted: inhaled or intranasal.
The target in series [3] is T1, Phosphatidylinositol 4,5-bisphosphate 3-kinase catalytic subunit delta isoform (Homo sapiens, UniProt O00329).
T1 sequence (O00329 whole entry): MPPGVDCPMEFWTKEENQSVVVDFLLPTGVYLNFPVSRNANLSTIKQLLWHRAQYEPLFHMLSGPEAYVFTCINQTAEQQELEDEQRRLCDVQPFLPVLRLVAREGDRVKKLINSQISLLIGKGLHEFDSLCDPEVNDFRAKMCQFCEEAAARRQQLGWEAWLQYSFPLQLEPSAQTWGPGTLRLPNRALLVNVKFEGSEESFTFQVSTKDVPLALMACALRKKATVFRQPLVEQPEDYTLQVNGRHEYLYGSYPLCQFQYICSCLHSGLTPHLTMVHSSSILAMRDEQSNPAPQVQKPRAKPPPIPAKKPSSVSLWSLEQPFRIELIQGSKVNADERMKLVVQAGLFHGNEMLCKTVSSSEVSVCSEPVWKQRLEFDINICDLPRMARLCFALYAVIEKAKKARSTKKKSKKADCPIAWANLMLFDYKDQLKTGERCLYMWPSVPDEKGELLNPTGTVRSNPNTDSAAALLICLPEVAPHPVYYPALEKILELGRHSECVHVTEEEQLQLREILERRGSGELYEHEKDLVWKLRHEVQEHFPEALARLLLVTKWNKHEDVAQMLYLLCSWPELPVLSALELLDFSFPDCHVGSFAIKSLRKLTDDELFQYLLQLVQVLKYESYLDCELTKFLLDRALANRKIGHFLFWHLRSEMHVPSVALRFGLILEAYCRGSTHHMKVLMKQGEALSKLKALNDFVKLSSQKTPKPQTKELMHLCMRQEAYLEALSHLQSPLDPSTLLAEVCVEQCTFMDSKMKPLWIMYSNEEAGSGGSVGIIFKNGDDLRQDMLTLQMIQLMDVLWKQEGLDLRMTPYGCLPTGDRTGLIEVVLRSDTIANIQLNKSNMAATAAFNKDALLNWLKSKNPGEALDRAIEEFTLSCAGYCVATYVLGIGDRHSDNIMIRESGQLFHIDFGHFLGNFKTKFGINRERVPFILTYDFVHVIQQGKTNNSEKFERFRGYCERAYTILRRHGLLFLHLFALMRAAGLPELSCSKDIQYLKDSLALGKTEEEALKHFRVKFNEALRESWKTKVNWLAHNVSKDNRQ
Nature of the series: Inhibition of PI3Kdelta in human THP-1 cells assessed as reduction in M-CSF-stimulated AKT phosphorylation at Thr308 preincubated for 30 mins followed by M-CSF addition for 3 mins by ELISA. Format: cell-based.

For series [4], the system named is Rattus norvegicus. Briefly: Anti-inflammatory activity in Brown Norway rat model of ovalbumin-induced inflammation assessed inhibition of neutrophil infiltration in bronchoalveolar lavage at 1 mg/kg, it administered 1 hr before ovalbumin aerosol challenge and measured 24 hrs post challenge by hematology analysis relative to control. The series is classed as functional. To be noted: inhaled or nasal.

Series [5] in a line: Thermodynamic aqueous solubility of the compound at pH 7.4. The series is classed as physicochemical. To be noted: buffer, read-out: Therm_solubility.
Series [6] is described as follows: AUC in Wistar rat at 1 mg/kg, iv. To be noted: in vivo. Format: ADME, organism-based.
A further series deals with PI3K p110 beta/p85 alpha (Homo sapiens, UniProt P42338).
Series [7] can be described thus: Half life in Wistar rat lung at 0.3 mg/kg, it administered as suspension. The series is classed as ADME, organism-based. To be noted: inhaled or intranasal.
The nature of series [8]: Cmax in Wistar rat lung at 0.3 mg/kg, it administered as suspension. The series is classed as ADME, organism-based. Also on record: dose 0.3 mg/kg. To be noted: inhaled or intranasal.
Series [9] in a line: AUC in Wistar rat plasma at 0.3 mg/kg, it administered as suspension. The series is classed as ADME, organism-based. To be noted: inhaled or intranasal.
Series [10] is described as follows: Ratio of AUC in lung to plasma of Wistar rat at 0.015 mg/kg, it administered as solution. The series is classed as ADME, organism-based. To be noted: Wistar, lung and plasma, inhaled or intranasal.
The nature of series [11]: Half life in Wistar rat at 1 mg/kg, iv. Format: ADME, organism-based. To be noted: in vivo.
Series [12] can be described thus: Protein binding in rat plasma at 1 uM by equilibrium dialysis. Format: ADME, cell-free. To be noted: read-out: PPB (converted).
Series [13] can be described thus: Ratio of AUC in lung to plasma of Wistar rat at 0.3 mg/kg, it administered as suspension. To be noted: Wistar, lung and plasma, inhaled or intranasal. The series is classed as ADME, organism-based.
Series [14] concerns the target PI3-kinase p110-alpha/p85-alpha (Homo sapiens, UniProt P42336).
Description: Inhibition of recombinant human N-terminal His6-tagged full length p110alpha/recombinant human full length p85alpha using PIP2 as substrate preincubated for 30 mins followed by substrate addition by HTRF assay
Series [15] in a line: AUC in Wistar rat lung at 0.015 mg/kg, it administered as solution. The series is classed as ADME, organism-based. To be noted: in vivo, inhaled_or_intranasal.
Series [16] can be described thus: AUC in Wistar rat plasma at 0.015 mg/kg, it administered as solution. Format: ADME, organism-based. To be noted: inhaled or intranasal.
A short description of series [17]: Drug metabolism in rat liver microsomes assessed as disappearance of parent compound at 5 uM after 30 mins in presence of NADPH by UPLC-MS/MS analysis. Format: ADME, microsome. To be noted: read-out: Drug metabolism.
A short description of series [18]: Cmax in Wistar rat plasma at 0.015 mg/kg, it administered as solution. The series is classed as ADME, organism-based. On the set-up: dose 0.015 mg/kg. To be noted: inhaled or intranasal.
Series [19] has as its target Phosphatidylinositol 4,5-bisphosphate 3-kinase catalytic subunit gamma isoform (Homo sapiens, UniProt P48736). Briefly: Inhibition of recombinant human N-terminal His6-tagged full length p110gamma using PIP2 as substrate preincubated for 30 mins followed by substrate addition by HTRF assay.
Series [20] can be described thus: Volume of distribution at steady state in Wistar rat at 1 mg/kg, iv. To be noted: in vivo, read-out: Vdss. Format: ADME, organism-based.
Series [21] in a line: Drug metabolism in human liver microsomes assessed as disappearance of parent compound at 5 uM preincubated for 3 mins followed UDPG addition and measured after 120 mins by UPLC-MS/MS analysis. Format: ADME, microsome. To be noted: read-out: Drug metabolism.
Series [22] can be described thus: Clearance in Wistar rat at 1 mg/kg, iv. Format: ADME, organism-based. To be noted: in vivo.
Series [23] is described as follows: Drug metabolism in human liver microsomes assessed as disappearance of parent compound at 5 uM after 30 mins in presence of NADPH by UPLC-MS/MS analysis. The series is classed as ADME, microsome. To be noted: read-out: Drug metabolism.
Series [24] is described as follows: Half life in Wistar rat plasma at 0.015 mg/kg, it administered as solution. To be noted: inhaled or intranasal. The series is classed as ADME, organism-based.
Series [25] is described as follows: Drug metabolism in rat liver microsomes assessed as disappearance of parent compound at 5 uM preincubated for 3 mins followed UDPG addition and measured after 120 mins by UPLC-MS/MS analysis. To be noted: read-out: Drug metabolism. The series is classed as ADME, microsome.
Series [26] in a line: Oral bioavailability in Wistar rat at 1 mg/kg. The series is classed as ADME, organism-based. To be noted: in vivo.
Series [27] is described as follows: Cmax in Wistar rat lung at 0.015 mg/kg, it administered as solution. Format: ADME, organism-based. Also on record: dose 0.015 mg/kg. To be noted: inhaled or intranasal.
Series [28] is described as follows: Apparent permeability of the compound at 20 uM by PAMPA assay. Format: ADME.
Series [29] is described as follows: Half life in Wistar rat lung at 0.015 mg/kg, it administered as solution. Format: ADME, organism-based. To be noted: inhaled or intranasal.
Series [30] has as its target PI3-kinase p110-delta/p85-alpha (Homo sapiens, UniProt O00329).
Description: Inhibition of recombinant human N-terminal His-tagged full length p110delta/recombinant human full length p85alpha using PIP2 as substrate preincubated for 30 mins followed by substrate addition by HTRF assay
The nature of series [31]: AUC in Wistar rat lung at 0.3 mg/kg, it administered as suspension. Format: ADME, organism-based. To be noted: in vivo, inhaled_or_intranasal.
The test system of series [32] is Rattus norvegicus. Nature of the series: Anti-inflammatory activity in Brown Norway rat model of ovalbumin-induced inflammation assessed inhibition of neutrophil infiltration in bronchoalveolar lavage at 0.3 mg/kg, it administered 1 hr before ovalbumin aerosol challenge and measured 24 hrs post challenge by hematology analysis relative to control. Format: functional. To be noted: inhaled or nasal.

In series [33] the test system is Rattus norvegicus. Nature of the series: Anti-inflammatory activity in Brown Norway rat model of ovalbumin-induced inflammation assessed inhibition of eosinophil infiltration in bronchoalveolar lavage at 0.3 mg/kg, it administered 1 hr before ovalbumin aerosol challenge and measured 24 hrs post challenge by hematology analysis relative to control. The series is classed as functional. To be noted: inhaled or nasal.

Chain of Phosphatidylinositol 4,5-bisphosphate 3-kinase catalytic subunit gamma isoform (P48736 whole entry, canonical isoform): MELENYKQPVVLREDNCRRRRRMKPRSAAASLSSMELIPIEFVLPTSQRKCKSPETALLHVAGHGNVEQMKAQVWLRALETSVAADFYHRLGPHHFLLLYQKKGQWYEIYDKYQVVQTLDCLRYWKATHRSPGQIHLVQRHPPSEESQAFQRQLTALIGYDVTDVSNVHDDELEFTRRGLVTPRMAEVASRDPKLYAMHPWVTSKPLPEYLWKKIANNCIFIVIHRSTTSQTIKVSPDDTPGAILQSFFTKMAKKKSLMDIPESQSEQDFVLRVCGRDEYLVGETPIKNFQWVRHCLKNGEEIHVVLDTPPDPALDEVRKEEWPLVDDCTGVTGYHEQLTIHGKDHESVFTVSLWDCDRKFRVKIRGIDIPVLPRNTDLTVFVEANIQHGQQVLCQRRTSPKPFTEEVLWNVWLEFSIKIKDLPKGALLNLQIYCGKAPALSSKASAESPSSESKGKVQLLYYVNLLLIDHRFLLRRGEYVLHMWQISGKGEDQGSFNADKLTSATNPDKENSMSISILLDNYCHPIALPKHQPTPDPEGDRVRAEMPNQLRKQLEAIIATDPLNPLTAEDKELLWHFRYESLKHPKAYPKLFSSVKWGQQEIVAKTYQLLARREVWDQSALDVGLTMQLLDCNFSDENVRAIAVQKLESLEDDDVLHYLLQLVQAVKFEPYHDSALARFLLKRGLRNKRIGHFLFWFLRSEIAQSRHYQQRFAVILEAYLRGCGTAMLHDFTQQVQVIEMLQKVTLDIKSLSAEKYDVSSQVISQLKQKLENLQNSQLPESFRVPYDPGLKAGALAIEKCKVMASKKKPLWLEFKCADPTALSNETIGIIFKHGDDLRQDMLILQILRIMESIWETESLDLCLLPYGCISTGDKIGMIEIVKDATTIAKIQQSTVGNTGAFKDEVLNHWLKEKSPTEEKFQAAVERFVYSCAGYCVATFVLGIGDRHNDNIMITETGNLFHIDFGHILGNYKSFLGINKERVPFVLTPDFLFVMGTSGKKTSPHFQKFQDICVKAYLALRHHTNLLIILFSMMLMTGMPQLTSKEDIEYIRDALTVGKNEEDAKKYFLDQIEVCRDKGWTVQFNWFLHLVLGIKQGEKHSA
Chain of PI3-kinase p110-alpha/p85-alpha (P27986 whole entry): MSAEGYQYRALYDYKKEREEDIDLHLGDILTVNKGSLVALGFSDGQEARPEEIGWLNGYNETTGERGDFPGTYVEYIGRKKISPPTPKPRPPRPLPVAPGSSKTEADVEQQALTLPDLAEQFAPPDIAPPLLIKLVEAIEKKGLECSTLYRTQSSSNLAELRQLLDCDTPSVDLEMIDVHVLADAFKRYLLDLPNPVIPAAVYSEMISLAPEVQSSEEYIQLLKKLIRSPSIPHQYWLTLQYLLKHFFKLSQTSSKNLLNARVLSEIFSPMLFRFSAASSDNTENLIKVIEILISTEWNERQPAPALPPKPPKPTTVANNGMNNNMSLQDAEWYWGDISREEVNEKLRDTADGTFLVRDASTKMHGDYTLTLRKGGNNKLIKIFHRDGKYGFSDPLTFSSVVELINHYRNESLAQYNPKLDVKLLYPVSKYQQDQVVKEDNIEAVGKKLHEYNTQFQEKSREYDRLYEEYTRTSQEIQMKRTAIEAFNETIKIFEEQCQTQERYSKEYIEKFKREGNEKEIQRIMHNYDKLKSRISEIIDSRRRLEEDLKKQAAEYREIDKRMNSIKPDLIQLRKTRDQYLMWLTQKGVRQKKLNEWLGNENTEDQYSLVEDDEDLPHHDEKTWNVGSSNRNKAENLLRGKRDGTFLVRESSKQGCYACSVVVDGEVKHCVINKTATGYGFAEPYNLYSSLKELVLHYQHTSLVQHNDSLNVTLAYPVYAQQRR
Chain of PI3-kinase p110-alpha/p85-alpha (P42336 whole entry): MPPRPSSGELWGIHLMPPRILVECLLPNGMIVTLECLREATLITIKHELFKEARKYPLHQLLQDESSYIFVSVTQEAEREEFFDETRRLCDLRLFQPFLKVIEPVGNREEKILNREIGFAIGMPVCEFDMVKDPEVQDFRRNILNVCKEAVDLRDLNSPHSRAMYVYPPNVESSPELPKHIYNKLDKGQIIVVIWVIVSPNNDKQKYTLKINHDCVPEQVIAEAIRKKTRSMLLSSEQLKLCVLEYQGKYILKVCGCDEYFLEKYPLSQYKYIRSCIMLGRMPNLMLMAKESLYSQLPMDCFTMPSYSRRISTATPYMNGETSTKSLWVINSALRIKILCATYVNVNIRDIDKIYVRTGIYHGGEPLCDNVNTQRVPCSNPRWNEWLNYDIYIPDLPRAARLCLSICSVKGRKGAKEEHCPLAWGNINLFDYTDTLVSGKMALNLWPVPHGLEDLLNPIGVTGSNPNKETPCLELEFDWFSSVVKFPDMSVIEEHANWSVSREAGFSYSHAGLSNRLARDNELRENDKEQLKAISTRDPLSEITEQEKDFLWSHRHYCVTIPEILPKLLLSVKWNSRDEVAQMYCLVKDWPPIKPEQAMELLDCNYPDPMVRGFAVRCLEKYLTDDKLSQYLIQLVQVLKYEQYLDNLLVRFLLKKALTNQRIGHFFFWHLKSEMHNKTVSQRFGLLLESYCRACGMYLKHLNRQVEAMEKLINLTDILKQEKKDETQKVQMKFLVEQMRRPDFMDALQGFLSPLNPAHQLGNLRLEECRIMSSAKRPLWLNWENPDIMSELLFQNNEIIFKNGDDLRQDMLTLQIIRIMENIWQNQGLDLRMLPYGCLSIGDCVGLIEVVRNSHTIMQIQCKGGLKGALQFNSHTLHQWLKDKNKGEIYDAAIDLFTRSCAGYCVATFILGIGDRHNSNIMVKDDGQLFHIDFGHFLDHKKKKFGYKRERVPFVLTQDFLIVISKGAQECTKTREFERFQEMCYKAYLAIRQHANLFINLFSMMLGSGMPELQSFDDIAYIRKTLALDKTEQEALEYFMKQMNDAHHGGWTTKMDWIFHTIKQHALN
Chain of PI3K p110 beta/p85 alpha (P27986 whole entry): as the sequence (P27986 whole entry) above
Chain of PI3K p110 beta/p85 alpha (P42338 whole entry): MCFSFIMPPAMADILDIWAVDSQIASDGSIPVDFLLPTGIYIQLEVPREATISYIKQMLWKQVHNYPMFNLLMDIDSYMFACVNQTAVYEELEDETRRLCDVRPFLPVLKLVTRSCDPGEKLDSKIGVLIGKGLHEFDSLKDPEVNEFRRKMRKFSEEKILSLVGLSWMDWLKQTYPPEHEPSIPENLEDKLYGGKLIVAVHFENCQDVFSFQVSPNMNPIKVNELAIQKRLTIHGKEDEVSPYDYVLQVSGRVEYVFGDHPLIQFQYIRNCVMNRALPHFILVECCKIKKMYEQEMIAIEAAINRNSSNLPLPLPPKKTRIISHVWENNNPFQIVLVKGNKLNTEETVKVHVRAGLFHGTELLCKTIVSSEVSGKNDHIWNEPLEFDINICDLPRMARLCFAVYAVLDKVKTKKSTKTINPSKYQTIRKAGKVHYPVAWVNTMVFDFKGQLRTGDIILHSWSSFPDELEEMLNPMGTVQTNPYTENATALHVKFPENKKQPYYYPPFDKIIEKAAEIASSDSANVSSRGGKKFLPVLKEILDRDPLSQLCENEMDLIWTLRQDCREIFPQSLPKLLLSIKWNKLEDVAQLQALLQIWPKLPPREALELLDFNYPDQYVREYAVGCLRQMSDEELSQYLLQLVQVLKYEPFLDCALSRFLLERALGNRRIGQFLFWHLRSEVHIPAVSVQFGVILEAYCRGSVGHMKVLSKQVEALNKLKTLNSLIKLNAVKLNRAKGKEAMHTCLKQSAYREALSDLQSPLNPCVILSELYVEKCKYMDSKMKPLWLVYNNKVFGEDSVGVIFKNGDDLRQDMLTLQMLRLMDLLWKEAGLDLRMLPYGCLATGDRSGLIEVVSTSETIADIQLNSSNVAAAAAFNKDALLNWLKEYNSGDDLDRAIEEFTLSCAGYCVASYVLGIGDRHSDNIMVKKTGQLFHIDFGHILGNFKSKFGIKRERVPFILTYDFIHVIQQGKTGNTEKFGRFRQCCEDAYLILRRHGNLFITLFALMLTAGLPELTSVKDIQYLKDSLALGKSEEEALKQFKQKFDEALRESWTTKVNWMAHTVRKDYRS
Chain of PI3-kinase p110-delta/p85-alpha (P27986 whole entry, one chain of several): as the sequence (P27986 whole entry) above
Description for PI3K p110 beta/p85 alpha: Inhibition of recombinant human N-terminal His6-tagged full length p110beta/recombinant human full length p85alpha using PIP2 as substrate preincubated for 30 mins followed by substrate addition and HTRF assay

In the case of `Cc1ccn2nc([C@H](C)Nc3ncnc(N)c3-c3ccc(O)c(F)c3)n(-c3ccccc3)c(=O)c12`, the Cmax in series [1] was found to be 236 ng/mL; in [8], 18600 ng/g; in series [18], 36.3 ng/mL; in series [27], 700 ng/g. Also, the half-life in series [2] is 1.1 h; in series [7], 5.7 h; in series [11] it was 1 h; in [24], 0.7 h; in series [29], 4.7 h. The IC50 in [3] stood at 0.0044 µM; against PI3K p110 beta/p85 alpha it was 0.087 µM; in series [14] it was 1.1 µM; in [19] it was 0.011 µM; in [30] it was 0.0005 µM. Besides, the inhibition in vivo at 1 mg/kg in the series with Rattus norvegicus [4] came out at 37%. Moreover, the solubility thermodynamic in [5] is 36 µg/mL (≈ 76.4 µM). In addition, the AUC in series [6] was found to be 149 ng·h/mL; in [9], 148 ng·h/mL; in series [15], 0.2 µg·h/g; in [16], 6.4 ng·h/mL; in series [31], 30.6 µg·h/g. The Kp is 31 in [10] and 207 in [13]. In addition, the fraction unbound at 1 µM in [12] was 0.054. Further, the metabolised at 0.5 h, 5 µM worked out at 44% in series [17] and 71% in [23]. In addition, in series [20], the Vd was found to be 5.2 L/kg. Also, the metabolised at 2 h, 5 µM in [21] came to 97%; in series [25], 96%. Besides, the clearance in [22] was found to be 112 mL/min/kg. The compound also yielded a bioavailability in series [26] of 13%. In addition, in series [28], the Papp at 20 µM stood at 1.7 ×10⁻⁶ cm/s.
Consider `C[C@@H]1C[C@H]2[C@@H]3C[C@H](F)C4=CC(=O)C=C[C@]4(C)[C@@]3(F)[C@@H](O)C[C@]2(C)[C@@]1(O)C(=O)SCF` [FLUTICASONE], for which the values for the inhibition in vivo at 0.3 mg/kg in the series on Rattus norvegicus [32] and with Rattus norvegicus [33] were 89% and 82%, respectively.
